# Data reported in patent US20210292807A1, “METHOD FOR TESTING ANTIMICROBIAL SUSCEPTIBILITY” (priority 2017, published 2021).
# Values joined by “and” are separate entries in the source; they are usually repeats but may differ in a detail not shown here. Equal entries are not always repeated.
# System: Klebsiella isolates
# Assay: Broth microdilution MIC (MICBMD) of Klebsiella isolates
# Assay type: cell-based, Klebsiella pneumoniae, Klebsiella oxytoca
# Experimental: An aliquot of bacterial suspension was added to 50 mL centrifuge tubes (Corning, N.Y.) containing 9 mL of pre-warmed (37° C.) filtered MHB to produce a final density of 5×10^5-1×10^6 bacteria per mL. This suspension was incubated at 37° C. with shaking at 100 RPM for 30 minutes to obtain an actively dividing culture. An aliquot of antibiotic working solution from the previously described dilution series (appropriate to the concentration tested) was then added to each tube before a further 30-minute incubation with shaking, during which time a microbroth dilution (MBD) plate was prepared for overnight incubation at 37° C. as previously described in Clinical and Laboratory Standards Institute (2015) Performance Standards for Antimicrobial Susceptibility Testing: Informational Supplement. CLSI document M100-S25. Clinical and Laboratory Standards Institute, 950, West Valley Road, Suite 2500, Wayne, Pa., 19087, USA.
# FIG. 2 outlines the work flow as exemplified herein. In brief, an isolate was retrieved from cryopreservation, plated onto blood agar to ensure purity, and inoculated into trypticase soy broth (TSB, described above) overnight to simulate biological fluids. A 1 mL aliquot of this overnight suspension was inoculated into Mueller-Hinton broth (MHB) [comprising about 300.0 g beef extract (dehydrated infusion from), about 17.5 g casein hydrolysate, about 1.5 g starch, reconstituted in about 1 L of water, pH 7.3±0.1 as measured and kept at 25° C.] and incubated at 37° C. to ensure bacteria were actively dividing. One aliquot was subjected to traditional microbroth dilution (MBD) susceptibility testing.
# [1] = K. pneumoniae isolate 18397, biological replicates
# [2] = K. pneumoniae isolate 43292, biological replicates
# [3] = K. pneumoniae isolate 43358, biological replicates
# [4] = K. pneumoniae isolate 44271, biological replicates
# [5] = K. pneumoniae isolate ATCC 700603, biological replicates
# [6] = K. pneumoniae isolate ATCC BAA1705, biological replicates
# [7] = K. pneumoniae isolate K1, biological replicates
# [8] = K. pneumoniae isolate K14, biological replicates
# [9] = isolate 3000770, England, NDM-1
# [10] = isolate 3040820, England, pAmpC
# [11] = isolate ATCC BAA 1705, USA, KPC
# [12] = isolate K16, Australia, IMP - 4
# [13] = isolate K23, Australia, IMP - 4
# [14] = isolate KS1, Sri Lanka, OXA-181
# [15] = isolate KS17, Sri Lanka, OXA-181
smiles,measurement,setting,value
C[C@@H](O)[C@H]1C(=O)N2C(C(=O)O)=C(S[C@@H]3CN[C@H](C(=O)N(C)C)C3)[C@H](C)[C@H]12 [meropenem],MICBMD,"K. pneumoniae ATCC 700603 (carbapenem susceptible control), limited clinical screen concentrations",≤0.25
same,MICBMD,"K. pneumoniae ATCC BAA1705 (carbapenem resistant control), limited clinical screen concentrations",>16
same,BMD S/NS,[1],S (S: MIC ≤2 mg/L)
same,MICBMD,[1],≤0.25 mg/L
same,BMD S/NS,[2],S (S: MIC ≤2 mg/L)
same,MICBMD,[2],≤0.25 mg/L
same,BMD S/NS,[3],S (S: MIC ≤2 mg/L)
same,MICBMD,[3],≤0.25 mg/L
same,BMD S/NS,[4],S (S: MIC ≤2 mg/L)
same,MICBMD,[4],0.5 mg/L
same,BMD S/NS,[5],S (S: MIC ≤2 mg/L)
same,MICBMD,[5],≤0.25 mg/L
same,BMD S/NS,[6],NS (NS: MIC >2 mg/L)
same,MICBMD,[6],16 mg/L
same,BMD S/NS,[7],NS (NS: MIC >2 mg/L)
same,MICBMD,[7],32 mg/L (2×) and 64 mg/L
same,BMD S/NS,[8],NS (NS: MIC >2 mg/L)
same,MICBMD,[8],256 mg/L
same,MICBMD,"K. pneumoniae isolate KS1, biological replicates",4 mg/L and 2 mg/L (2×)
same,MICBMD,"K. pneumoniae isolate KS11, biological replicates",2 mg/L and 4 mg/L (2×)
same,MBD S/NS,"isolate 194, Sweden, VIM",NS (NS = MIC >2 mg/L)
same,MICBMD,"isolate 194, Sweden, VIM",64 mg/L
same,MBD S/NS,"isolate 374, Sweden, VIM",NS (NS = MIC >2 mg/L)
same,MICBMD,"isolate 374, Sweden, VIM",8 mg/L
same,MBD S/NS,"isolate 3354, Australia",S (S = MIC ≤2 mg/L)
same,MICBMD,"isolate 3354, Australia",≤0.25 mg/L
same,MBD S/NS,"isolate 10924, Sweden, KPC",S (S = MIC ≤2 mg/L)
same,MICBMD,"isolate 10924, Sweden, KPC",≤0.25 mg/L
same,MBD S/NS,"isolate 18397, Australia",S (S = MIC ≤2 mg/L)
same,MICBMD,"isolate 18397, Australia",≤0.25 mg/L
same,MBD S/NS,"isolate 43288, Australia",S (S = MIC ≤2 mg/L)
same,MICBMD,"isolate 43288, Australia",≤0.25 mg/L
same,MBD S/NS,"isolate 43292, Australia",S (S = MIC ≤2 mg/L)
same,MICBMD,"isolate 43292, Australia",≤0.25 mg/L
same,MBD S/NS,"isolate 43358, Australia",S (S = MIC ≤2 mg/L)
same,MICBMD,"isolate 43358, Australia",≤0.25 mg/L
same,MBD S/NS,"isolate 43854, Australia",S (S = MIC ≤2 mg/L)
same,MICBMD,"isolate 43854, Australia",≤0.25 mg/L
same,MBD S/NS,"isolate 44271, Australia",S (S = MIC ≤2 mg/L)
same,MICBMD,"isolate 44271, Australia",0.5 mg/L
same,MBD S/NS,"isolate 51575, Sweden, ESBL",S (S = MIC ≤2 mg/L)
same,MICBMD,"isolate 51575, Sweden, ESBL",≤0.25 mg/L
same,MBD S/NS,"isolate 70708, Sweden, KPC",NS (NS = MIC >2 mg/L)
same,MICBMD,"isolate 70708, Sweden, KPC",32 mg/L
same,MBD S/NS,"isolate 71076, Sweden, KPC",NS (NS = MIC >2 mg/L)
same,MICBMD,"isolate 71076, Sweden, KPC",32 mg/L
same,MBD S/NS,"isolate 200822, Sweden, KPC",NS (NS = MIC >2 mg/L)
same,MICBMD,"isolate 200822, Sweden, KPC",16 mg/L
same,MBD S/NS,"isolate 270902, England",S (S = MIC ≤2 mg/L)
same,MICBMD,"isolate 270902, England",0.5 mg/L
same,MBD S/NS,"isolate 500638, Sweden, pAmpC",NS (NS = MIC >2 mg/L)
same,MICBMD,"isolate 500638, Sweden, pAmpC",4 mg/L
same,MBD S/NS,"isolate 515870, Sweden, ESBL",S (S = MIC ≤2 mg/L)
same,MICBMD,"isolate 515870, Sweden, ESBL",≤0.25 mg/L
same,MBD S/NS,"isolate 2440606, England",S (S = MIC ≤2 mg/L)
same,MICBMD,"isolate 2440606, England",≤0.25 mg/L
same,MBD S/NS,"isolate 2880622, England",S (S = MIC ≤2 mg/L)
same,MICBMD,"isolate 2880622, England",≤0.25 mg/L
same,MBD S/NS,"isolate 2880654, England, KPC",NS (NS = MIC >2 mg/L)
same,MICBMD,"isolate 2880654, England, KPC",64 mg/L
same,MBD S/NS,"isolate 2890369, England",S (S = MIC ≤2 mg/L)
same,MICBMD,"isolate 2890369, England",≤0.25 mg/L
same,MBD S/NS,"isolate 2980639, England",S (S = MIC ≤2 mg/L)
same,MICBMD,"isolate 2980639, England",≤0.25 mg/L
same,MBD S/NS,[9],NS (NS = MIC >2 mg/L)
same,MICBMD,[9],32 mg/L
same,MBD S/NS,[10],S (S = MIC ≤2 mg/L)
same,MICBMD,[10],0.5 mg/L
same,MBD S/NS,"isolate 3080800, England, KPC",NS (NS = MIC >2 mg/L)
same,MICBMD,"isolate 3080800, England, KPC",256 mg/L
same,MBD S/NS,"isolate A1, Norway",S (S = MIC ≤2 mg/L)
same,MICBMD,"isolate A1, Norway",≤0.25 mg/L
same,MBD S/NS,"isolate A2, Norway",S (S = MIC ≤2 mg/L)
same,MICBMD,"isolate A2, Norway",≤0.25 mg/L
same,MBD S/NS,"isolate A3, Norway",S (S = MIC ≤2 mg/L)
same,MICBMD,"isolate A3, Norway",≤0.25 mg/L
same,MBD S/NS,"isolate A4, Norway",S (S = MIC ≤2 mg/L)
same,MICBMD,"isolate A4, Norway",≤0.25 mg/L
same,MBD S/NS,"isolate A7, Norway",S (S = MIC ≤2 mg/L)
same,MICBMD,"isolate A7, Norway",≤0.25 mg/L
same,MBD S/NS,"isolate A13, Norway",S (S = MIC ≤2 mg/L)
same,MICBMD,"isolate A13, Norway",≤0.25 mg/L
same,MBD S/NS,"isolate A15, Norway",S (S = MIC ≤2 mg/L)
same,MICBMD,"isolate A15, Norway",≤0.25 mg/L
same,MBD S/NS,"isolate A16, Norway",S (S = MIC ≤2 mg/L)
same,MICBMD,"isolate A16, Norway",≤0.25 mg/L
same,MBD S/NS,"isolate A20, Norway, NDM-1",NS (NS = MIC >2 mg/L)
same,MICBMD,"isolate A20, Norway, NDM-1",16 mg/L
same,MBD S/NS,"isolate ATCC 700603, USA",S (S = MIC ≤2 mg/L)
same,MICBMD,"isolate ATCC 700603, USA",≤0.25 mg/L
same,MBD S/NS,[11],NS (NS = MIC >2 mg/L)
same,MICBMD,[11],16 mg/L
same,MBD S/NS,"isolate ATCC BAA 1706, USA",S (S = MIC ≤2 mg/L)
same,MICBMD,"isolate ATCC BAA 1706, USA",≤0.25 mg/L
same,MBD S/NS,"isolate K1, Australia, OXA-181",NS (NS = MIC >2 mg/L)
same,MICBMD,"isolate K1, Australia, OXA-181",64 mg/L
same,MBD S/NS,"isolate K2, Australia, OXA-181",NS (NS = MIC >2 mg/L)
same,MICBMD,"isolate K2, Australia, OXA-181",32 mg/L
same,MBD S/NS,"isolate K8, Australia, NDM-1",NS (NS = MIC >2 mg/L)
same,MICBMD,"isolate K8, Australia, NDM-1",>256 mg/L
same,MBD S/NS,"isolate K14, Australia, KPC",NS (NS = MIC >2 mg/L)
same,MICBMD,"isolate K14, Australia, KPC",>256 mg/L
same,MBD S/NS,[12],NS (NS = MIC >2 mg/L)
same,MICBMD,[12],16 mg/L
same,MBD S/NS,[13],S (S = MIC ≤2 mg/L)
same,MICBMD,[13],2 mg/L
same,MBD S/NS,[14],NS (NS = MIC >2 mg/L)
same,MICBMD,[14],4 mg/L
same,MBD S/NS,"isolate KS2, Sri Lanka, OXA-181",NS (NS = MIC >2 mg/L)
same,MBD S/NS,[15],NS (NS = MIC >2 mg/L)
same,MICBMD,[15],64 mg/L
same,MBD S/NS,"isolate KS23, Sri Lanka, OXA-181",NS (NS = MIC >2 mg/L)
same,MBD S/NS,"isolate N17, Sweden, NDM-1",NS (NS = MIC >2 mg/L)
same,MICBMD,"isolate N17, Sweden, NDM-1",32 mg/L
